Test results published in patent publication US20070185084A1, “COMPOSITIONS OF AN ANTICONVULSANT AND METHODS OF USING THE SAME FOR REVERSING WEIGHT GAIN” (Orexigen Therapeutics, Inc., priority 2006, published 2007).
Entries after “also recorded” stand apart in the source; their conditions may differ. Where two headings read alike, the source gives them in different places.

Experiments:
[1] = Example 10: co-treatment with zonisamide in rodent model of olanzapine-induced weight gain (body weight, food intake); type: in vivo, Sprague-Dawley rats
Description: Female Sprague-Dawley rats, weighing about 235 grams at the start of the experiment were used. They were trained to sham injections, using the zonisamide vehicle for 2 weeks before the study commenced. Under isoflurane anesthesia, Alzet osmotic minipumps (2 ml2) were implanted subcutaneously, between the shoulder blades. The rats were subsequently returned to their home cages after recovery. The minipumps delivered 5 μL per hour for 14 days. […] The animals were housed individually and supplied with standard laboratory chow. Food consumed and animal weights were recorded every days. […] Rats were allowed to recover after pump implantation, and then received twice daily injections of zonisamide 26 mg/kg.

[2] = Example 11: zonisamide started one week after olanzapine pump implantation in rodent model of olanzapine-induced weight gain; type: in vivo, rats
Description: Female Sprague-Dawley rats, weighing about 235 grams at the start of the experiment were used. They were trained to sham injections, using the zonisamide vehicle for 2 weeks before the study commenced. Under isoflurane anesthesia, Alzet osmotic minipumps (2 ml2) were implanted subcutaneously, between the shoulder blades. The rats were subsequently returned to their home cages after recovery. The minipumps delivered 5 μL per hour for 14 days. Olanzapine was dissolved in 1.5% lactic acid in dH2O. Zonisamide was dissolved in 10% DMSO, 13.4% EtOH, 20.1% PPG, and […]. Olanzapine dose was 1.75 mg/day via the minipump. The animals were housed individually and supplied with standard laboratory chow. Food consumed and animal weights were recorded every days. There were 5 animals in the control (vehicle) group, 5 animals in the zonisamide only group, 4 animals in the olanzapine only group, and 6 animals in the olanzapine+zonisamide group.
Rats were allowed to recover after pump implantation, and then received twice daily injections of zonisamide 26 mg/kg. Their food intake and body weight were calculated daily for 15 days.
The protocol used was the same as described in Example 12, with the exception that the treatment with zonisamide began one week after implantation of the olanzapine osmotic pumps, and food intake and body weight were calculated daily for 10 days.

[3] = Example 13 case study: zonisamide in patient with weight gain on paroxetine and risperidone; type: in vivo, human
Description: They were therefore started on zonisamide 100 mg, increased to 200 mg. […] The dose was then increased to 300 mg and then to 600 mg.

[4] = Example 14 case study: bupropion and zonisamide added to olanzapine and valproate; type: in vivo, human
Description: At this point, zonisamide was added to their medication regimen at 100 mg/day and the dose was increased to 200 mg/day after two weeks.

[5] = system: Proopiomelanocortin (POMC) neurons; test: Electrophysiology: action current frequency of POMC neurons in brain slices, loose cell attached patch; type: cell-based, POMC-EGFP mice; settings: for frequency of action currents (activity) of POMC neurons: zonisamide 10 μM, FIG. 1
Description: The electrophysiological activity of Proopiomelanocortin (POMC) neurons in brain slices from POMC-EGFP mice was recorded. The POMC neurons in these mice are identified by the expression of green fluorescent protein (EGFP) in these, and only these, cells. The frequency of action potentials in these neurons were recorded using standard electrophysiological techniques. In particular, loose cell attached patch configuration is used to determine action current frequency, whilst minimally disturbing the cells.
The basal activity was recorded, and then olanzapine (100 nM) was added to the tissue bath to determine the effect of olanzapine on the activity of POMC neurons. […] Then the effect of zonisamide on the reduction in activity caused by […] was tested by adding olanzapine plus zonisamide (10 μM) to the bath.

[6] = Example 12 case study: zonisamide added to clonazepam, fluoxetine and lamotrogine, bipolar patient; type: in vivo, human; settings: zonisamide 100 mg qD added to clonazepam, fluoxetine, lamotrogine; person
Description: A person having biopolar disorder, Type I, had been treated for just over year by their psychiatrist using clonazepam 1 mg qHS, fluoxetine 20 mg qd, and lamotrogine 300 mg qD. One particular complaint was that they had “constant thoughts of eating”. Their psychiatrist started them on zonisamide 100 mg qD. […] The dose was continued and despite multiple stressors at home, they continued to do well on the treatment regimen.

[7] = cited from earlier work
[8] = Day 1.00, rats, olanzapine 1.75 mg/day minipump, zonisamide 26 mg/kg twice daily
[9] = Day 7.00, rats, zonisamide begun one week after olanzapine pump implantation
[10] = zonisamide added to olanzapine, valproate, bupropion

Cc1cc2c(s1)Nc1ccccc1N=C2N1CCN(C)CC1 [Olanzapine, olanzapine]
Change in Food Intake Post Pump Implant, Mean [1, 8]: 16.56 | Cumulative Change in Body Weight, Mean [1, 8]: 7.44 | Change in Food Intake Post Pump Implant, Mean ([1]; Day 2.00): 39.82 | Cumulative Change in Body Weight, Mean ([1]; Day 4.00): 21.04 | Change in Food Intake Post Pump Implant, Mean ([1]; Day 5.00): 62.30 | Cumulative Change in Body Weight, Mean ([1]; Day 5.00): 19.22 | Change in Food Intake Post Pump Implant, Mean ([1]; Day 6.00): 86.14 | Cumulative Change in Body Weight, Mean ([1]; Day 6.00): 20.56 | Change in Food Intake Post Pump Implant, Mean ([1]; Day 7.00): 105.74 | Cumulative Change in Body Weight, Mean ([1]; Day 7.00): 30.88 | Change in Food Intake Post Pump Implant, Mean ([1]; Day 8.00): 119.30 | Cumulative Change in Body Weight, Mean ([1]; Day 8.00): 27.56 | Change in Food Intake Post Pump Implant, Mean ([1]; Day 9.00): 144.98 | Cumulative Change in Body Weight, Mean ([1]; Day 9.00): 32.94 | Change in Food Intake Post Pump Implant, Mean ([1]; Day 10.00): 161.16 | Cumulative Change in Body Weight, Mean ([1]; Day 10.00): 34.98 | Change in Food Intake Post Pump Implant, Mean ([1]; Day 11.00): 180.96 | Cumulative Change in Body Weight, Mean ([1]; Day 11.00): 33.40 | Change in Food Intake Post Pump Implant, Mean ([1]; Day 12.00): 201.42 | Cumulative Change in Body Weight, Mean ([1]; Day 12.00): 40.76 | Change in Food Intake Post Pump Implant, Mean ([1]; Day 13.00): 224.38 | Cumulative Change in Body Weight, Mean ([1]; Day 13.00): 38.84 | Change in Food Intake Post Pump Implant, Mean ([1]; Day 14.00): 241.48 | Cumulative Change in Body Weight, Mean ([1]; Day 14.00): 43.28 | Cumulative Change in Body Weight, Mean ([1]; Day 15.00): 41.64 | Cumulative Change in Body Weiglt Post-Pump Implant, Mean [2, 9]: −0.46 | Cumulative Change in Food Intake Post-Pump Implant, Mean [2, 9]: 13.39 | Cumulative Change in Body Weiglt Post-Pump Implant, Mean ([2]; Day 8.00): −11.55 | Cumulative Change in Food Intake Post-Pump Implant, Mean ([2]; Day 8.00): 18.36 | Cumulative Change in Body Weiglt Post-Pump Implant, Mean ([2]; Day 9.00): 4.28 | Cumulative Change in Food Intake Post-Pump Implant, Mean ([2]; Day 9.00): 57.46 | Cumulative Change in Body Weiglt Post-Pump Implant, Mean ([2]; Day 10.00): 11.88 | Cumulative Change in Food Intake Post-Pump Implant, Mean ([2]; Day 10.00): 124.58 | Cumulative Change in Body Weiglt Post-Pump Implant, Mean ([2]; Day 11.00): 13.48 | Cumulative Change in Food Intake Post-Pump Implant, Mean ([2]; Day 11.00): 145.5 | Cumulative Change in Body Weiglt Post-Pump Implant, Mean ([2]; Day 12.00): 11.8 | Cumulative Change in Food Intake Post-Pump Implant, Mean ([2]; Day 12.00): 163.6 | Cumulative Change in Body Weiglt Post-Pump Implant, Mean ([2]; Day 13.00): 15.55 | Cumulative Change in Food Intake Post-Pump Implant, Mean ([2]; Day 13.00): 181.05 | Cumulative Change in Body Weiglt Post-Pump Implant, Mean ([2]; Day 14.00): 20.4 | Cumulative Change in Food Intake Post-Pump Implant, Mean ([2]; Day 14.00): 200.9 | Cumulative Change in Body Weiglt Post-Pump Implant, Mean ([2]; Day 15.00): 17.98 | Cumulative Change in Food Intake Post-Pump Implant, Mean ([2]; Day 15.00): 218.2 | Cumulative Change in Body Weiglt Post-Pump Implant, Mean ([2]; Day 16.00): 21.22 | Cumulative Change in Food Intake Post-Pump Implant, Mean ([2]; Day 16.00): 236.95

CC(NC(C)(C)C)C(=O)c1cccc(Cl)c1 (stereo not shown) [bupropion]
weight loss ([3]; trial of bupropion alone): did not cause significant weight loss | weight lost ([4]; bupropion 150 mg/day added to olanzapine and valproate, after 6 months): 23.6 lbs | adverse effect reported ([4]; bupropion dose raised to 300 mg/day): feeling hyperactive | weight regained ([4]; while continuing bupropion, over the next 10 months): 10.6 lbs

NS(=O)(=O)Cc1noc2ccccc12 [Zonisamide, zonisamide]
activity of POMC neurons inhibited by olanzapine ([5]; olanzapine plus zonisamide (10 μM) in the bath, FIG. 3): reversed the inhibition of POMC neurons | frequency of action currents (activity) of POMC neurons [5]: reversibly increased the activity of POMC neurons | frequency of action currents (activity) of POMC neurons ([5]; listed as zonisamide): increases the activity of POMC neurons | craving for food [6]: significantly reduced their craving for food | weight gain [6]: prevented weight gain | weight loss ([7]; patients presenting with primary obesity): significant weight loss | tolerability ([7]; versus placebo treatment): well tolerated | psychiatric symptoms ([3]; on zonisamide): improved | weight lost ([3]; zonisamide 100 mg, increased to 200 mg, in 3 weeks): 12 pounds | weight ([3]; zonisamide increased to 300 mg and then 600 mg, in 5 months): returned to baseline | Change in Food Intake Post Pump Implant, Mean [1, 8]: 12.48 | Cumulative Change in Body Weight, Mean [1, 8]: 9.74 | Change in Food Intake Post Pump Implant, Mean ([1]; Day 2.00): 30.10 | Cumulative Change in Body Weight, Mean ([1]; Day 4.00): 20.24 | Change in Food Intake Post Pump Implant, Mean ([1]; Day 5.00): 46.02 | Cumulative Change in Body Weight, Mean ([1]; Day 5.00): 17.60 | Change in Food Intake Post Pump Implant, Mean ([1]; Day 6.00): 58.24 | Cumulative Change in Body Weight, Mean ([1]; Day 6.00): 19.34 | Change in Food Intake Post Pump Implant, Mean ([1]; Day 7.00): 72.10 | Cumulative Change in Body Weight, Mean ([1]; Day 7.00): 20.18 | Change in Food Intake Post Pump Implant, Mean ([1]; Day 8.00): 86.88 | Cumulative Change in Body Weight, Mean ([1]; Day 8.00): 17.32 | Change in Food Intake Post Pump Implant, Mean ([1]; Day 9.00): 104.86 | Cumulative Change in Body Weight, Mean ([1]; Day 9.00): 13.66 | Change in Food Intake Post Pump Implant, Mean ([1]; Day 10.00): 123.66 | Cumulative Change in Body Weight, Mean ([1]; Day 10.00): 14.62 | Change in Food Intake Post Pump Implant, Mean ([1]; Day 11.00): 140.40 | Cumulative Change in Body Weight, Mean ([1]; Day 11.00): 16.46 | Change in Food Intake Post Pump Implant, Mean ([1]; Day 12.00): 160.36 | Cumulative Change in Body Weight, Mean ([1]; Day 12.00): 21.08 | Change in Food Intake Post Pump Implant, Mean ([1]; Day 13.00): 177.70 | Cumulative Change in Body Weight, Mean ([1]; Day 13.00): 24.26 | Change in Food Intake Post Pump Implant, Mean ([1]; Day 14.00): 186.25 | Cumulative Change in Body Weight, Mean ([1]; Day 14.00): 27.52 | Cumulative Change in Body Weight, Mean ([1]; Day 15.00): 25.70 | effect on the weight gain associated with olanzapine ([1]; zonisamide added to concomitant olanzapine treatment, rats): decrease the weight gain associated with olanzapine | Cumulative Change in Body Weiglt Post-Pump Implant, Mean [2, 9]: −1.73 | Cumulative Change in Food Intake Post-Pump Implant, Mean [2, 9]: 13.15 | Cumulative Change in Body Weiglt Post-Pump Implant, Mean ([2]; Day 8.00): −11.38 | Cumulative Change in Food Intake Post-Pump Implant, Mean ([2]; Day 8.00): 18.62 | Cumulative Change in Body Weiglt Post-Pump Implant, Mean ([2]; Day 9.00): −1.28 | Cumulative Change in Food Intake Post-Pump Implant, Mean ([2]; Day 9.00): 46.87 | Cumulative Change in Body Weiglt Post-Pump Implant, Mean ([2]; Day 10.00): 5.8 | Cumulative Change in Food Intake Post-Pump Implant, Mean ([2]; Day 10.00): 101.08 | Cumulative Change in Body Weiglt Post-Pump Implant, Mean ([2]; Day 11.00): 6.37 | Cumulative Change in Food Intake Post-Pump Implant, Mean ([2]; Day 11.00): 116.93 | Cumulative Change in Body Weiglt Post-Pump Implant, Mean ([2]; Day 12.00): 0.86 | Cumulative Change in Food Intake Post-Pump Implant, Mean ([2]; Day 12.00): 126.64 | Cumulative Change in Body Weiglt Post-Pump Implant, Mean ([2]; Day 13.00): −4.79 | Cumulative Change in Food Intake Post-Pump Implant, Mean ([2]; Day 13.00): 133.95 | Cumulative Change in Body Weiglt Post-Pump Implant, Mean ([2]; Day 14.00): −11.79 | Cumulative Change in Food Intake Post-Pump Implant, Mean ([2]; Day 14.00): 141.09 | Cumulative Change in Body Weiglt Post-Pump Implant, Mean ([2]; Day 15.00): −10.3 | Cumulative Change in Food Intake Post-Pump Implant, Mean ([2]; Day 15.00): 153.61 | Cumulative Change in Body Weiglt Post-Pump Implant, Mean ([2]; Day 16.00): −9.37 | Cumulative Change in Food Intake Post-Pump Implant, Mean ([2]; Day 16.00): 167.93 | effect on olanzapine-induced weight gain ([2]; zonisamide one week after implantation of olanzapine pumps, rats): decrease the weight gain associated with olanzapine; also recorded: reversed olanzapine-induced weight gain | weight lost ([4]; zonisamide 100 mg/day, 200 mg/day after two weeks, added to regimen, over the next 4 months): 15 lbs | adverse effects reported [4, 10]: no adverse effects | bipolar disorder symptoms [4, 10]: remained free of bipolar disorder symptoms
